Earlier results, collected in US5618928A, “Triazenyl-substituted phenyl pyrimidines and their use in therapy” (British Technology Group Limited, priority 1992, dated 1997).

Key:
[1] = in combination with sulphamethoxazole, AIDS patients; cited from earlier work
[2] = test system: dihydrofolate reductase (DHFR); details: in words, background; cited from earlier work

| Compound | adverse reactions [1] | potency [2] | selectivity [2] |
| --- | --- | --- | --- |
| COc1cc(Cc2cnc(N)nc2N)cc(OC)c1OC [trimethoprim] | high percentage of adverse reactions in AIDS patients |  |  |
| COc1cc(NCc2ccc3nc(N)nc(N)c3c2C)cc(OC)c1OC [trimetrexate] |  | high potency | poor selectivity |
